Test results: PubChem BioAssay (NCI)
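Protocol summary: plate cells (96-well), add compound at 5 concentrations, incubate 48 h, interpolate endpoints linearly. TGI denotes the concentration required for complete inhibition of growth.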

Columns and labels:
Assay in all cases: growth of human tumour cells (NCI), 48 h
SW-620 colon = system: SW-620 colon
SN12C renal = system: SN12C renal
HOP-92 NSCLC = system: HOP-92 NSCLC
786-0 renal = system: 786-0 renal
OVCAR-3 ovarian = system: OVCAR-3 ovarian
SK-MEL-28 melanoma = system: SK-MEL-28 melanoma
IGROV1 ovarian = system: IGROV1 ovarian
RPMI-8226 leukemia = system: RPMI-8226 leukemia
HCC-2998 colon = system: HCC-2998 colon
LOX IMVI melanoma = system: LOX IMVI melanoma
HOP-62 NSCLC = system: HOP-62 NSCLC
KM12 colon = system: KM12 colon
HCT-116 colon = system: HCT-116 colon
UO-31 renal = system: UO-31 renal
SNB-19 CNS = system: SNB-19 CNS
A498 renal = system: A498 renal
NCI-H226 lung = system: NCI-H226 lung

Row | Structure (SMILES) | TGI (SW-620 colon) [µM] | TGI (SN12C renal) [µM] | TGI (HOP-92 NSCLC) [µM] | TGI (786-0 renal) [µM] | TGI (OVCAR-3 ovarian) [µM] | TGI (SK-MEL-28 melanoma) [µM] | TGI (IGROV1 ovarian) [µM] | TGI (RPMI-8226 leukemia) [µM] | TGI (HCC-2998 colon) [µM] | TGI (LOX IMVI melanoma) [µM] | TGI (HOP-62 NSCLC) [µM] | TGI (KM12 colon) [µM] | TGI (HCT-116 colon) [µM] | TGI (UO-31 renal) [µM] | TGI (SNB-19 CNS) [µM] | TGI (A498 renal) [µM] | TGI (NCI-H226 lung) [µM]
1 | CCCCCC(=O)OC[n+]1cccc(-c2c(COC(=O)NC(C)C)c(COC(=O)NC(C)C)c3n2CCC3)c1 | > 100 | > 100 | 77.2 | > 100 | > 100 | > 100 | > 100 | > 100 | > 100 | > 100 | > 100 | > 100 | > 100 | > 100 | > 100 | 37.7 | > 100
2 | c1ccc(C(NC2=NCCO2)C2CC2)cc1 (configuration not stated) | > 100 | > 100 | > 100 | > 100 | > 100 | > 100 | > 100 | > 100 | > 100 | > 100 | > 100 | > 100 | > 100 | > 100 | > 100 | > 100 | > 100
3 | CN1S(=O)(=O)N(C)P12(N=P(CP(=NP13(N(C)S(=O)(=O)N1C)N(C)S(=O)(=O)N3C)(c1ccccc1)c1ccccc1)(c1ccccc1)c1ccccc1)N(C)S(=O)(=O)N2C | > 100 | > 100 | > 100 | > 100 | > 100 | > 100 | > 100 | > 100 | > 100 | > 100 | > 100 | > 100 | > 100 | > 100 | > 100 | > 100 | > 100
4 | CC(C)(C)OC(=O)/N=C/c1c(O)c2ccccc2oc1=O | > 100 | > 100 | > 100 | > 100 | > 100 | > 100 | > 100 | > 100 | > 100 | > 100 | > 100 | > 100 | > 100 | > 100 | > 100 | 78.5 | 64.7
5 | CCOc1ccc(NC(=O)C(=O)C(/C(=N/N)C(=O)OC)c2nc3ccc([N+](=O)[O-])cc3[nH]c2=O)cc1 (configuration not stated) | > 100 | > 100 | > 100 | > 100 | > 100 | > 100 | > 100 | > 100 | > 100 | > 100 | > 100 | > 100 | > 100 | > 100 | > 100 | > 100 | > 100
6 | CC1(C)CC(=O)C(C(=O)Nc2cccs2)=C(O)C1 | > 100 | > 100 | 68.2 | > 100 | > 100 | > 100 | > 100 | > 100 | > 100 | > 100 | > 100 | > 100 | > 100 | 81.7 | > 100 | 88.9 | 86.8
